Test results reported in article PMC3025922 (BMC Biology, 2010).
Values joined by “and” are separate entries in the source; they are usually repeats but may differ in a detail not shown here. Equal values may be shown once. Read-outs that look alike come from different tables or passages of the source.

Experiments:
[1] = MTT cytotoxicity assay, IMR90; format: cell-based; details: human, IMR90 normal fibroblasts
Experimental: (§3) LNCaP-S14 (10,000 cells), PC3, DU145 or IMR90 cells (5000 cells) were seeded in 96-well plates and treated with increasing concentrations of the respective SMIPs for 72 h. Cell viability was assessed using the MTT cell proliferation assay (ATCC®, Middlesex, UK) according to the manufacturer's protocol. IC50 was calculated using the BioDataFit 1.02 software http://www.changbioscience.com/stat/ec50.html.

[2] = tested on: LNCaP cells; test: Cell cycle analysis by flow cytometry, LNCaP; format: cell-based, human
Experimental: (§1) Cells were exposed to SMIPs (40 μM) for 24 h and 48 h. Cells were trypsinized, washed with PBS and suspended in 600 μL PBS. Cells were fixed by adding 1.4 mL cold absolute ethanol and kept at -20°C for at least 12 h. After washing once with PBS, the cells were resuspended in 250 μL PBS containing 2.5 μg RNAse A and incubated for 45 min at room temperature. Staining was done by adding 40 μg/mL of propidium iodine followed by incubation for 15 min at room temperature. DNA-bound fluorescence was read at 564 to 606 nm using FACSort and FACSCanto flow cytometers (BD Biosciences) at the Flow Cytometry Facility of the Sanford-Burnham Medical Research Institute. Distribution of cells in the different cell cycle phase was determined with ModFit LT 3.2.1 or FlowJo 8.6 software. Aggregates were excluded from the analysis manually using pulse shape or identified by automated modelling in ModFit LT.

[3] = tested on: LNCaP-S14 cells; test: Cell cycle analysis by flow cytometry, LNCaP-S14; format: cell-based, human
Experimental: as §1

[4] = tested on: LNCaP-S14 cells; test: Cell cycle distribution in LNCaP-S14 transfected with siRNAs for p27 and p21; format: cell-based, human
Experimental: as §1
LNCaP-S14 cells were seeded in 6 cm dishes or six-well-plates coated with poly-lysine the day before transfection. 10-20 nM of siRNA was transfected using DharmaFECT 3 (Thermo Scientific) according to the manufacturer's instructions. Briefly, siRNAs were dissolved in siRNA suspension buffer (Quiagen) at 20 μM, heated to 90°C for 1 min and incubated at 37°C for 1 h. siRNAs were added to the DharmaFECT 3 reagent diluted in Optimem media (1:100) and incubated for 20 min at room temperature. The mix was added to the cells for 24 h. Treatment with SMIPs (40 μM) or vehicle was carried on for another 24 h. Cells were obtained for FACS or lysed for immunoblotting analysis as described above. Untransfected cells as well as cells transfected with non-specific siRNA were used as controls. Silencer® Negative Control siRNA No.1 from Ambion (Applied Biosciences, CA, USA) was used as non-specific control siRNA. siRNA target sequences for p27 and p21 synthesized by IDT (Integrated DNA Technologies Inc, Iowa, USA) were as follows; p27 siRNA: […], and p21 siRNA: […] [56].

[5] = tested on: p27 protein levels in LNCaP-S14 cells; test: Immunoblot quantification of p27, LNCaP-S14; format: cell-based, human
Experimental: (§2) Total cell lysate from cells treated with vehicle (DMSO) or compounds were obtained by incubating cells in lysis buffer (25 mM Tris-HCl pH 7.4, 150 mM NaCl, 0.5% Triton X-100, protease inhibitors) for 15 min at 4°C. The supernatant was collected by centrifugation and the amount of protein was determined with a Bio-Rad protein assay (Bio-Rad) using BSA as standard. Equal amounts of protein were subjected to SDS-PAGE (4%-20% gels, Invitrogen) and transferred to PVDF membranes. The membranes were blocked with TBST (50 mM Tris-HCl pH 7.5, 150 mM NaCl, 0.05% Tween-20) containing 5% non-fat dry milk or bovine serum albumin (BSA) for 1 h at room temperature, followed by incubation in primary antibodies 4°C overnight. Membranes were washed and incubated with secondary antibodies conjugated to HRP (Jackson ImmunoResearch Laboratories) for 1 h at room temperature. Signals were visualized using the ECL Western Blotting Substrate (Pierce Biotechnology, IL, USA) according to the manufacturer's instructions. Membranes were stripped using Restore™ Western Blot Stripping Buffer (Pierce Biotechnology). Films were scanned and quantification of the bands was performed using Image J software http://rsbweb.nih.gov/ij/.

[6] = tested on: p21 protein levels in LNCaP-S14 cells; test: Immunoblot quantification of p21, LNCaP-S14; format: cell-based, human
Experimental: as §2

[7] = tested on: p27 protein levels in PC3 cells; test: Immunoblot quantification of p27, PC3; format: cell-based, human
Experimental: as §2

[8] = tested on: p21 protein levels in PC3 cells; test: Immunoblot quantification of p21, PC3; format: cell-based, human
Experimental: as §2

[9] = tested on: p27 protein levels in HeLa cells; test: Immunoblot quantification of p27, HeLa; format: cell-based, human
Experimental: as §2

[10] = tested on: p21 protein levels in IMR90 cells; test: Immunoblot quantification of p21, IMR90; format: cell-based, human
Experimental: as §2

[11] = tested on: p27 stability in LNCaP-S14 cells; test: Protein half-life by cycloheximide chase; format: cell-based, human; details: LNCaP-S14, 40 μM SMIPs 18 h, then cycloheximide 100 μg/mL; DMSO ~ 1.29 h
Experimental: LNCaP-S14 cells were treated with SMIPs (40 μM) for 18 h followed by the addition of 100 μg/mL cycloheximide (CHX). Cell extracts were obtained as described above at different times after CHX addition. Protein lysate was subjected to SDS-PAGE and immunoblotting for p27, p21 and SKP2. Tubulin was used as loading control. Protein half-lives were calculated using a web based calculator http://www.1728.com/halflife.htm.

[12] = tested on: LNCaP-S14 cells; test: Cell Death Detection ELISA (cytoplasmic histone-associated DNA fragments); format: cell-based, human
Experimental: Apoptosis was measured using the Cell Death Detection ELISA (Roche, Basel, Switzerland) following the manufacturer's instructions. Briefly, LNCaP-S14 cells (0.1 × 10^6) were seeded in 12-well plates and treated with SMIPs (40 μM) for 24 h. Cells were collected in medium, spun at 1000 rpm, and resuspended in 1 mL PBS at the specified time points (day 1 to day 3). The cell suspension was divided into two parts. The first half was used for determination of cytoplasmic histone-associated DNA fragments (ELISA), the second for protein determination to normalize the ELISA data to the amount of input protein.

[13] = tested on: PC3 cells; test: MTT cytotoxicity assay, PC3; details: Homo sapiens, read-out: IC50 (MTT cytotoxicity)
Experimental: as §3

[14] = tested on: DU145 cells; test: MTT cytotoxicity assay, DU145; details: Homo sapiens, read-out: IC50 (MTT cytotoxicity)
Experimental: as §3

[15] = tested on: LNCaP-WT cells; test: MTT cytotoxicity assay, LNCaP-WT; details: Homo sapiens, read-out: IC50 (MTT cytotoxicity)
Experimental: as §3

CC(C)(C)c1cc2cc(NC(=O)c3cccs3)ccc2[nH]1 [SMIP001]
IC50 at 72 h ([1]; IMR90, 0.01 - 40 μM): > 20 µM
IC50 at 72 h ([1]; IMR90, 0.01 - 80 μM): 40 to 80 µM
IC50 at 96 h ([1]; IMR90, 0.01 - 80 μM, 96 h): 40 to 80 µM
Cell cycle distribution G1 [2]: 84.5 and 83.6
Cell cycle distribution G2 [2]: 7.6 and 6.6
Cell cycle distribution S [2]: 6.6 and 8.5
Cell cycle distribution G1 [3]: 84.8 and 86.8
Cell cycle distribution G2 [3]: 6.3 and 3.5
Cell cycle distribution S [3]: 7.2 and 6.9
% G1 [4]: 71.86% and 75.76% and 75.13% and 72.22%
% G2 [4]: 21.07% and 14.54% and 18.37% and 16.74%
% S [4]: 7.07% and 9.70% and 6.50% and 11.04%
p27 protein level (immunoblot, DMSO = 1.0) [5]: 1.9 ± 0.5
p21 protein level (immunoblot, DMSO = 1.0) [6]: 2.0 ± 0.6
p27 protein level (immunoblot, DMSO = 1.0) [7]: 1.3 ± 0.6
p21 protein level (immunoblot, DMSO = 1.0) [8]: 1.1 ± 0.5
p27 protein level (immunoblot, DMSO = 1.0) [9]: 1.1 ± 0.1
p21 protein level (immunoblot, DMSO = 1.0) [10]: 1.1 ± 0.0
p27 half-life [11]: No effect
increase in the amount of mono and oligonucleosomes [12]: three- to fivefold
IC50 ([13]; PC-3, 72 h): ~80 µM
IC50 ([13]; PC-3, 96 h): 80 µM
IC50 ([14]; DU-145, 72 h): ~40 µM
IC50 ([14]; DU-145, 96 h): 32.5 µM
IC50 ([15]; 72 h): 47.1 µM
IC50 ([15]; 96 h): 32.7 µM
